According to ChEMBL document CHEMBL1151983, “Antiprotealide is a natural product” (J Nat Prod, 2009):
Where “and” joins values, the source holds several entries; their conditions need not be identical. Identical values can stand only once.

What was measured:
[1] = Inhibition of chymotrypsin-like activity of rabbit 20S proteasome; set-up: species or system Oryctolagus cuniculus
[2] = tested on: RPMI-8226; experiment: Cytotoxicity against human RPMI8226 cells after 48 hrs by resazurin assay; type: functional, cell-based
[3] = Inhibition of caspase-like activity of rabbit 20S proteasome; set-up: species or system Oryctolagus cuniculus
[4] = Inhibition of trypsin-like activity of rabbit 20S proteasome; set-up: species or system Oryctolagus cuniculus

CC(C)[C@H](O)[C@@]12NC(=O)[C@H](CCCl)[C@]1(C)OC2=O [ANTIPROTEALIDE]
IC50 [1]: 0.027 µM and 0.031 µM
IC50 ([2]; Homo sapiens, RPMI-8226, 48 h): 0.22 µM
IC50 ([2]; rpmi-8226): 0.283 µM
IC50 [3]: > 20 µM
IC50 [4]: 0.211 µM and 0.262 µM

C[C@@]12OC(=O)[C@]1([C@@H](O)[C@@H]1C=CCCC1)NC(=O)[C@@H]2CCCl [MARIZOMIB]
IC50 [1]: 0.004 µM
IC50 ([2]; Homo sapiens, RPMI-8226, 48 h): 0.011 µM
IC50 [3]: 0.364 µM
IC50 [4]: 0.034 µM
